This is an account of results in publication PMC10794345, “Analysis of vascular disruption in zebrafish embryos as an endpoint to predict developmental toxicity” (Archives of Toxicology, 2023).

Series [1] concerns early life stage zebrafish. The conditions noted are these: cited from earlier work.
Series [2] deals with zebrafish embryos (wild-type strain OBI/WIK). Nature of the series: Lethality of zebrafish embryos at 96 hpf. The format is in vivo, zebrafish (D. rerio). The conditions noted are these: for Mortality (in words): embryos exposed from 24 hpf, compared to exposure from 3 hpf. The protocol: Fertilized and normally developed embryos were selected according to Kimmel et al. ([1995]) with a dissection microscope (Olympus SZx7-ILLT) at 1 hpf. Depending on experiment, exposure was started within 2–3 h post-fertilization (16–128 cell stages) or at 24 hpf. Exposure was conducted in rectangular 96-well microplates (Clear Polystyrene, flat bottom, Uniplate, Whatman, GE Healthcare) covered by a lid with a test volume of 400 µL of exposure media. For each replicate one embryo per well and 16 wells per concentration were assessed. Experiments were performed with at least two replicates on independent days and breeding.
(§1) Concentration–response curves were fitted for lethality, heart rate, morphological features as previously described (Teixidó et al. [2019], [2022]). The assessment of lethality and morphological features was based on the percentage of embryos affected. Therefore, morphological endpoints were dichotomized, i.e. feature metrics were converted to the percentage of embryos deviating from controls. An embryo was considered to deviate when it was outside 1.5-fold of the standard deviation range of the mean of the control group. The control mean was determined by pooling control embryos across all experiments (n = 160) (available at git.ufz.de). For heart rate and angiogenesis (number of ISVs) the analysis was based on normalized values, i.e. for each experiment the values of the treatment were divided by the control value. The experiments were designed to calculate effect concentrations based on modelled curve fits. Different concentrations were used in at least two independent replicates, with means of each replicate based on the exposure of 16 different embryos per concentrations. Effect concentration were only modeled when three conditions were met. (1) The Tukey trend test based on the R package "tukeytrend" (Schaarschmidt et al. [2022]) was deriving a maximum p-value of 0.05. (2) The Akaike information criterion (AIC) for the log-logistic model was lower than the AIC for a linear model with slope 0 (lower p values for the letter would indicate that there is no trend in the data). (3) We calculated effect concentrations only if at least 30% of embryos for that endpoint were affected in at least one exposure concentration of (for normalized data) a reduction or increase by 30% was observed.

Series [3] has the same test system. Nature of the series: ISV inhibition (angiogenesis) by video subtraction in wildtype zebrafish embryos. Type of series: in vivo, zebrafish (D. rerio). The protocol:
A wild-type adult zebrafish strain (D. rerio, strain OBI/WIK, generation F3), originating from an in-house cross of zebrafish strains UFZ-OBI and WIK, was used for all experiments. The Tg(kdr:EGFP) strain was kindly provided by the University of Jena. Fish were fed twice daily with dry food (SDS-400, Special Diets Services, Essex England) and once daily with Artemia sp. […] Spawning trays were inserted 4–6 h before the end of the light cycle. The following day, spawning was initiated by the onset of light and eggs were collected within 1 h. Exposure in all experiment was ceased at 96 hpf.
Exposure was conducted in rectangular 96-well microplates (Clear Polystyrene, flat bottom, Uniplate, Whatman, GE Healthcare) covered by a lid with a test volume of 400 µL of exposure media. For each replicate one embryo per well and 16 wells per concentration were assessed. Experiments were performed with at least two replicates on independent days and breeding.
To determine the number of ISVs in the trunk region, high-resolution images of 96 hpf-old zebrafish embryos were recorded using a Leica DM6B-Z microscope (Leica, Wetzlar, Germany) attached to the VAST imaging system, and a camera (Leica DFC9000 sCMOS, objective: HC APO L U-V-I 20x/0.50 WATER UV). A series of 20 images with a frame rate of 20 images per second and a 2 × 2 pixel binning was recorded in autofocus mode for each embryo.
A series of MATLAB scripts (Supplement File ‘Workflow 3.m’ and ‘Workflow 4.m’) was used to convert the image series into a video and to visualize the blood vessel by applying a video subtraction approach (Figure SI1). Briefly, each video frame was subtracted from the average image of the whole image sequence and converted to a binary image by applying a Gaussian blur (σ = 5) and a threshold of 0.025 to obtain optimal contrast in binary images. Subsequently, the sum of all binary images was calculated. Due to movement of the blood cells the subtraction approach removed all parts from the image which were not moving resulting in an image of the blood vessels. This binary image of the blood vessel network in the zebrafish embryo tail was then processed with the FishInspector annotation software (version 1.70). […] The number of ISVs was obtained by application of a KNIME workflow to FishInspector annotation files. Subsequently concentration–response analysis was conducted using a KNIME workflow. The coefficient of variation (CV) of controls was calculated for both the subtraction and the fluorescence-based method by dividing the standard deviation of individual embryos with the control mean: CVControl=SD/Mean.
as §1, with “The” for “Concentration–response curves were fitted for lethality, heart rate, morphological features as previously described (Teixidó et al. [2019], [2022]). The”, “(1) The Tukey trend test based on the R package "tukeytrend" (Schaarschmidt et al. [2022]) was deriving a maximum p-value of 0.05.” left out, “data).” for “data). (3) We calculated effect concentrations only if at least 30% of embryos for that endpoint were affected in at least one exposure concentration of (for normalized data) a reduction or increase by 30% was observed.”

Where [4] appears, read: Danio rerio, 24–96 hpf exposure, ± 95% confidence intervals, read-out: IC50 of ISV inhibition.

Where two headings read alike, the source gives them in different places.

Broadly, the LC50 is the concentration that kills 50% of the test population. Read a low LC50 as greater toxicity.

Turning to `CN(C)c1ccc(C=C2C(=O)Nc3ccccc32)cc1` [SU4312], the IC50 is 1800 nM in series [1] (ref Tal et al. [2014], read-out: IC50 (ISV inhibition)); 2300 ± 420 nM in series [3] (3–96 hpf exposure, ± 95% confidence intervals, read-out: IC50 of ISV inhibition); 2590 ± 600 nM in series [3] (24–96 hpf exposure, ± 95% confidence intervals, read-out: IC50 of ISV inhibition); 90 nM in series [3] (exposure window not stated at this place, read-out: IC50 / loss of ISV number, current study as restated in discussion). The molecule further came in with an LC50 in series [2] (3–96 hpf exposure, ± 95% confidence intervals) of 2110 ± 220 nM. Further, the “Mortality (in words)” value in series [2] is “no”.

Regarding `Cc1cc(C)c(/C=C2\C(=O)Nc3ccccc32)[nH]1` [SU5416], the “Reduction (ISV)” value in series [1] (late exposure scenario, 40 µM, ref Parng et al. [2002]) is 40%. Moreover, in series [1] (late exposure scenario, ref Panneerselvan and Ragunathan [2018]), the “Concentration with complete ISV inhibition” value is recorded as 2 µM. In addition, in series [1] (ref Serbedzija et al. [1999]), the “Concentration with inhibition of ISV formation” value is 1 µM. Besides, in series [2], the “Mortality (in words)” value was “reduced”. In series [3] (setting [4]), the IC50 came to 2100 ± 350 nM.

On to `CNC(=O)c1cc(Oc2ccc(NC(=O)Nc3ccc(Cl)c(C(F)(F)F)c3)cc2)ccn1` [Sorafenib], for which the IC50 in series [1] (ref Lin et al. [2019], read-out: IC50 from scoring system of different ISV length) was 530 nM; in series [3] (Danio rerio, 3–96 hpf exposure, ± 95% confidence intervals, read-out: IC50 of ISV inhibition) it was 1370 ± 100 nM; in series [3] (setting [4]), 1360 ± 240 nM. Also, the “Mortality (in words)” value in series [2] is given as “no”.
